We go through one compound from patent US20150299219A1, “BICYCLIC PYRAZOLONE COMPOUNDS AND METHODS OF USE” (Calitor Sciences, LLC, priority 2014, published 2015).

Series [1] is described as follows: Compound stability in human liver microsomes. It is filed as in vitro ADME. The protocol:
(§1) Human or rat liver microsomes incubations were conducted in duplicate in polypropylene tubes. The typical incubation mixtures consisted of human or rat liver microsomes (0.5 mg protein/mL), compounds of interest (5 μM) and NADPH (1.0 mM) in a total volume of 200 μL potassium phosphate buffer (PBS, 100 mM, pH 7.4). Compounds were dissolved in DMSO and diluted with PBS such that the final concentration of DMSO was 0.05%. The enzymatic reactions were commenced with the addition of protein after a 3-min preincubation and incubated in a water bath open to the air at 37° C. Reactions were terminated at various time points (0, 5, 10, 15, 30, 60 min) by adding equal volume of ice-cold acetonitrile. The samples were stored at −80° C. until LC/MS/MS assays.
(§2) The concentrations of compounds in the incubation mixtures of human or rat liver microsomes were determined by a LC/MS/MS method. The ranges of the linearity in the concentration range were determined for each tested compounds.
(§3) A parallel incubation was performed using denatured microsomes as the negative control, and reactions were terminated at various time points (0, 15, 60 min) after incubation at 37° C.
(§4) Dextromethorphan (70 μM) was selected as the positive control, and reactions were terminated at various time points (0, 5, 10, 15, 30, 60 min) after incubation at 37° C. Both positive and negative control samples were included in each assay to ensure the integrity of the microsomal incubation system.
(§5) Alternatively, the stability of some of the compounds disclosed herein in human (or rat) liver microsomes were also conducted in the following protocol. The incubations were conducted in duplicate in polypropylene tubes. The typical incubation mixtures consisted of liver microsomes (final concentration: 0.5 mg protein/mL), compounds (final concentration: 1.5 μM) in a total volume of 30 μL K-buffer (contain 1.0 mM EDTA, 100 mM, pH7.4). Compounds were dissolved in DMSO and diluted with K-buffer such that the final concentration of DMSO was 0.2%. The enzymatic reactions were commenced with the addition of 15 μL of NADPH (final concentration: 2 mM) after 10 min preincubation and incubated in a 37° C. incubator. Reactions were terminated at various time points (0, 15, 30, 60 min) by adding 135 μL acetonitrile (contain IS). Protein is removed by centrifugation with 4000 rpm, 10 min. Supernatant was collected for LCMS/MS analysis
(§6) In the above protocol, ketanserin (1 μM) was selected as the positive control, and reactions were terminated at various time points (0, 15, 30, 60 min) after incubation at 37° C. The positive control sample was included in each assay to ensure the integrity of the microsomal incubation system.
(§7) The concentrations of compounds in human or rat liver microsome incubations were plotted as a percentage of the relevant zero time point control for each reaction. The in vivo CLint were extrapolated (ref: Naritomi, Y.; Terashita, S.; Kimura, S.; Suzuki, A.; Kagayama, A.; and Sugiyama, Y.; Prediction of human hepatic clearance from in vivo animal experiments and in vitro metabolic studies with liver microsomes from animals and humans. Drug Metab. Dispos., 2001, 29: 1316-1324).

Series [2] in a line: Compound stability in rat liver microsomes. The format is in vitro ADME. The protocol: as §1, §2, §3, §4, §5, §6, §7
A short description of series [3]: Pharmacokinetic profiles in rats. The format is in vivo. Particulars: rat, plasma. Here is the method: The LC/MS/MS system used in the analysis consists of an Agilent 1200 Series vacuum degasser, binary pump, well-plate autosampler, thermostatted column compartment, the Agilent G6430 Triple Quadrupole Mass Spectrometer with an electrosprayionization (ESI) source. Quantitative analysis was carried out using MRM mode. The parameters for MRM transitions are in the Table A.
An Agilent XDB-C18, 2.1×30 mm, 3.5 μM column was used for the analysis. 5 μL of the samples were injected. Analysis condition: The mobile phase was 0.1% formic acid in water (A) and 0.1% formic acid in methanol (B). The flow rate was 0.4 mL/min. And the gradient of Mobile phase was in the Table B.
Alternatively, an Agilent 6330 series LC/MS/MS spectrometer equipped with G1312A binary pumps, a G1367A autosampler and a G1314C UV detector were used in the analysis. An ESI source was used on the LC/MS/MS spectrometer. The analysis was done in positive ion mode as appropriate and the MRM transition for each analyte was optimized using standard solution. A Capcell MP-C18 100×4.6 mm I.D., […] column (Phenomenex, Torrance, Calif., USA) was used during the analysis. The mobile phase was 5 mM ammonia acetate, 0.1% MeOH in water (A): 5 mM ammonia acetate, 0.1% MeOH in acetonitrile (B) (70/30, v/v). The flow rate was 0.6 mL/min. Column was maintained at ambient temperature. 20 μL of the samples were injected.
The compounds disclosed herein are assessed in pharmacokinetic studies in mice, rats, dogs or monkeys. The compounds are administered as a water solution, 2% HPMC+1% TWEEN®80 in water solution, 5% DMSO+5% solutol in saline, 4% MC suspension or capsule. For the intravenous administration, the animals are generally given at 1 or 2 mg/kg dose. For the oral (p.o.) dosing, mice and rats are generally given 5 or 10 mg/kg dose, and dogs and monkeys are generally given 10 mg/kg dose. The blood samples (0.3 mL) are drawn at 0.25, 0.5, 1.0, 2.0, 3.0, 4.0, 6.0, 8.0, 12 and 24 h time points or 0.083, 0.25, 0.5, 1.0, 2.0, 4.0, 6.0, 8.0 and 24 h time points and centrifuged at 3,000 or 4000 rpm for 2 to 10 min. The plasma solutions are collected, and stored at −20° C. or −70° C. until analyzed by LC/MS/MS as described above.

Setting [4] is: pH 7.4, 0.5 mg protein/mL, NADPH, 37° C.
Where [5] appears, read: pH 7.4, in vivo CLint extrapolated.

SMILES strings stand for the structures.

Turning to `Nc1cc(Oc2ccc(NC(=O)c3c4n(n(-c5ccccc5)c3=O)CCC4)cc2)ccn1` [Ex. 1, N-(4-((2-aminopyridin-4-yl)oxy)phenyl)-2-oxo-1-phenyl-2,4,5,6-tetrahydro-1H-pyrrolo[1,2-b]pyrazole-3-carboxamide], the half-life in series [1] (setting [4]) is 3.13 h; in series [2] (setting [4]), 1.48 h; in series [3] (iv dosing, 1 mg/kg) it was 1.51 h. Moreover, the values for the CLint scaled in series [1] (setting [5]) and in series [2] (setting [5]) were 9.27 mL/min/kg and 27.9 mL/min/kg, respectively. The area under the curve AUC(0-t) in series [3] (iv dosing, 1 mg/kg) came to 1190 ng·h/mL. Moreover, the Vd in series [3] (iv dosing, 1 mg/kg, read-out: Vss) was found to be 1.2 L/kg. For the same compound, the bioavailability in series [3] (po, bioavailability (F)) stood at 163%.
